We go through 28 compounds from patent US9156796B2, “Benzoimidazole-carboxylic acid amide derivatives as APJ receptor modulators” (SANOFI, priority 2013, dated 2015).

Like-named read-outs stand apart in the source and are kept apart here.

The assay concerns the target T1, human apelin receptor (Homo sapiens, UniProt P35414).
T1 construct: expressed in transfected cells
T1 sequence (P35414 1-380): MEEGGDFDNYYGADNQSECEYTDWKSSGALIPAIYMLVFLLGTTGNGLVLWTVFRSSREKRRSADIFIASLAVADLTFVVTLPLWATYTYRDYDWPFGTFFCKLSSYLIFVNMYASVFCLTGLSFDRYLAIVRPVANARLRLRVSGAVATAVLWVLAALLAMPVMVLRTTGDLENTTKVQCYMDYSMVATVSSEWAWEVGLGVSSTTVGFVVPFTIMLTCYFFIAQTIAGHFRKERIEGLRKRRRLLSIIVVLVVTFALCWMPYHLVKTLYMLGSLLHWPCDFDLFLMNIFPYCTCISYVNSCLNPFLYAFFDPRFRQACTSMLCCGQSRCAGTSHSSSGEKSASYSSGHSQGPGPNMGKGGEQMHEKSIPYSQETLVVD
Briefly: Determination of agonism on the human apelin receptor by a calcium fluorescence assay (FLIPR). The assay is classed as cell-based. The note with it: HEK293 cells stably transfected with human apelin receptor and Giaq protein, Fluo-4 calcium fluorescence. In outline:
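HEK293 cells stably co-expressing human apelin receptor and promiscuous Giaq, loaded 1 h at 37 °C with Fluo-4 (4 μM) in probenecid-containing Hepes buffer, pH 7.4. Compounds, at least 7 concentrations in triplicate, added in FLIPR Tetra; peak calcium fluorescence normalized to 1 μM apelin-13 as 100% to derive EC50.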

For the compound `CCCN(CCC)C1CCN(C(=O)[C@H](CC(C)C)NC(=O)c2ccc3c(c2)nc(Cc2cccs2)n3C(CC)CC)CC1` [Example 284, 1-(1-Ethyl-propyl)-2-thiophen-2-ylmethyl-1H-benzoimidazole-5-carboxylic acid [(S)-1-(4-dipropylamino-piperidine-1-carbonyl)-3-methyl-butyl]-amide], where the note is “read-out: EC50 (APJ agonism)”, the EC50 is 252 nM.
As for `CCC(CC)n1c(Cn2cccn2)nc2cc(C(=O)N[C@H](CC(=O)O)CC(C)C)ccc21` [Example 49, (S)-3-{[1-(1-Ethyl-propyl)-2-pyrazol-1-ylmethyl-1H-benzoimidazole-5-carbonyl]-amino}-5-methyl-hexanoic acid], the EC50 (read-out: EC50 (APJ agonism)) stood at 7070 nM.
The same measure, in the same setting: then `CCC(CC)n1c(Cc2cccs2)nc2cc(C(=O)N[C@@H](CC(C)C)C(=O)N3C[C@H]4C[C@@H]3CN4Cc3ccccc3)ccc21` [Example 325, 1-(1-Ethyl-propyl)-2-thiophen-2-ylmethyl-1H-benzoimidazole-5-carboxylic acid [(S)-1-((1R,4R)-5-benzyl-2,5-diaza-bicyclo[2.2.1]heptane-2-carbonyl)-3-methyl-butyl]-amide], with 4410 nM; and `CCC(CC)n1c(Cc2cccs2)nc2cc(C(=O)N[C@@H](CC(C)C)C(=O)NCC3CCCCN3C)ccc21` (stereo partly drawn) [Example 257, 1-(1-Ethyl-propyl)-2-thiophen-2-ylmethyl-1H-benzoimidazole-5-carboxylic acid {(S)-3-methyl-1-[(1-methyl-piperidin-2-ylmethyl)-carbamoyl]-butyl}-amide], with 425 nM.
Turning to `CCC(CC)n1c(Cc2cccs2)nc2cc(C(=O)N[C@H](Cc3nnn[nH]3)CC(C)C)ccc21` [Example 472, 1-(1-Ethyl-propyl)-2-thiophen-2-ylmethyl-1H-benzoimidazole-5-carboxylic acid [(S)-3-methyl-1-(1H-tetrazol-5-ylmethyl)-butyl]-amide], the EC50 (read-out: EC50 (APJ agonism)) was 38 nM.
The same measure, in the same setting: then `CCC(CC)n1c(Cc2ccco2)nc2cc(C(=O)N[C@@H](CC3CCCCC3)C(=O)O)ccc21` [Example 8, (S)-3-Cyclohexyl-2-{[1-(1-ethyl-propyl)-2-furan-2-ylmethyl-1H-benzoimidazole-5-carbonyl]-amino}-propionic acid], with 107 nM; and `CCC(CC)n1c(Cc2cccs2)nc2cc(C(=O)N[C@@H](CCC(C)C)C(=O)O)ccc21` [Example 130, (S)-2-{[1-(1-Ethyl-propyl)-2-thiophen-2-ylmethyl-1H-benzoimidazole-5-carbonyl]-amino}-5-methyl-hexanoic acid], with 293 nM; and `CCC(CC)n1c(Cc2cccs2)nc2cc(C(=O)N[C@H](CO)[C@@H](C)CC)ccc21` [Example 194, 1-(1-Ethyl-propyl)-2-thiophen-2-ylmethyl-1H-benzoimidazole-5-carboxylic acid ((1S,2S)-1-hydroxymethyl-2-methyl-butyl)-amide], with 960 nM.
Still for that read-out and setting: then `CCC(CC)n1c(Cc2cccs2)nc2cc(C(=O)N[C@@H](Cc3ccc(F)cc3)C(=O)O)ccc21` [Example 19, (S)-2-{[1-(1-Ethyl-propyl)-2-thiophen-2-ylmethyl-1H-benzoimidazole-5-carbonyl]-amino}-3-(4-fluoro-phenyl)-propionic acid], with 5030 nM.
Same read-out and setting: then `CCC(CC)n1c(Cc2cscn2)nc2cc(C(=O)N[C@H](C(=O)O)[C@@H](C)CC)ccc21` [Example 85, (2S,3S)-2-{[1-(1-Ethyl-propyl)-2-thiazol-4-ylmethyl-1H-benzoimidazole-5-carbonyl]-amino}-3-methyl-pentanoic acid], with 7800 nM.
As for `CC(C)C[C@H](NC(=O)c1ccc2c(c1)nc(Cc1cccs1)n2C1CCCC1)C(=O)O` [Example 110, (S)-2-[(1-Cyclopentyl-2-thiophen-2-ylmethyl-1H-benzoimidazole-5-carbonyl)-amino]-4-methyl-pentanoic acid], the EC50 (read-out: EC50 (APJ agonism)) stood at 2030 nM.
Same read-out and setting: then `CCC(CC)n1c(Cc2cccs2)nc2cc(C(=O)N[C@H](CO)CC3CCCCC3)ccc21` [Example 177, 1-(1-Ethyl-propyl)-2-thiophen-2-ylmethyl-1H-benzoimidazole-5-carboxylic acid ((S)-1-cyclohexylmethyl-2-hydroxy-ethyl)-amide], with 2420 nM; and `CCC(CC)n1c(Cc2cccs2)nc2cc(C(=O)N[C@@H](CC(C)C)C(=O)NCCCN3CCCC3)ccc21` [Example 241, 1-(1-Ethyl-propyl)-2-thiophen-2-ylmethyl-1H-benzoimidazole-5-carboxylic acid [(S)-3-methyl-1-(3-pyrrolidin-1-yl-propylcarbamoyl)-butyl]-amide], with 257 nM; and `CCC(CC)n1c(Cc2cccs2)nc2cc(C(=O)N[C@@H](CC(C)C)C(=O)NC[C@H]3CCCO3)ccc21` [Example 367, 1-(1-Ethyl-propyl)-2-thiophen-2-ylmethyl-1H-benzoimidazole-5-carboxylic acid ((S)-3-methyl-1-{[(R)-1-(tetrahydro-furan-2-yl)methyl]-carbamoyl}-butyl)-amide], with 1660 nM.
On to `CCC(CC)n1c(Cc2cccs2)nc2cc(C(=O)N[C@@H](CC(C)C)C(=O)N3CC(C)OC(C)C3)ccc21` (stereo partly drawn) [Example 229, 1-(1-Ethyl-propyl)-2-thiophen-2-ylmethyl-1H-benzoimidazole-5-carboxylic acid [(S)-1-(2,6-dimethyl-morpholine-4-carbonyl)-3-methyl-butyl]-amide], for which, under “read-out: EC50 (APJ agonism)”, the EC50 came to 1940 nM.
For `CC[C@H](C)[C@H](NC(=O)c1ccc2c(c1)nc(Cc1cccs1)n2[C@@H]1CCCC[C@H]1C)C(=O)O` [Example 92, (2S,3S)-3-Methyl-2-{[1-((1R,2R)-2-methyl-cyclohexyl)-2-thiophen-2-ylmethyl-1H-benzoimidazole-5-carbonyl]-amino}-pentanoic acid], where the note is “read-out: EC50 (APJ agonism)”, the EC50 was < 41 nM.
On the same count and under the same terms, then `O=C(N[C@@H](CC1CCCCC1)C(=O)O)c1ccc2c(c1)nc(Cc1cccs1)n2C1CCCCC1C(F)(F)F` (stereo partly drawn) [Example 17, (S)-3-Cyclohexyl-2-{[2-thiophen-2-ylmethyl-1-(2-trifluoromethyl-cyclohexyl)-1H-benzoimidazole-5-carbonyl]-amino}-propionic acid], with 935 nM; and `CCCC(CCO)NC(=O)c1ccc2c(c1)nc(Cc1cccs1)n2C(CC)CC` (single isomer, unassigned) [Example 470], with 235 nM; and `CCC(CC)n1c(Cc2cccs2)nc2cc(C(=O)NC(CC(=O)O)C3CCCCC3)ccc21` (stereo not shown) [Example 44, 3-Cyclohexyl-3-{[1-(1-ethyl-propyl)-2-thiophen-2-ylmethyl-1H-benzoimidazole-5-carbonyl]-amino}-propionic acid], with 258 nM.
Same read-out and setting: then `CCC(CC)n1c(Cc2cccs2)nc2cc(C(=O)N[C@@H](CC(C)C)C(=O)NCCC#N)ccc21` [Example 404, 1-(1-Ethyl-propyl)-2-thiophen-2-ylmethyl-1H-benzoimidazole-5-carboxylic acid [(S)-1-(2-cyano-ethylcarbamoyl)-3-methyl-butyl]-amide], with 788 nM; and `CCC(CC)n1c(Cc2cccs2)nc2cc(C(=O)N[C@H](Cc3noc(C4CC4)n3)CC(C)C)ccc21` [Example 475, 1-(1-Ethyl-propyl)-2-thiophen-2-ylmethyl-1H-benzoimidazole-5-carboxylic acid [(S)-1-(5-cyclopropyl-[1,2,4]oxadiazol-3-ylmethyl)-3-methyl-butyl]-amide], with 2820 nM.
As to `CCC(CC)n1c(Cc2cccs2)nc2cc(C(=O)N[C@H](COC)CC(C)C)ccc21` [Example 207, 1-(1-Ethyl-propyl)-2-thiophen-2-ylmethyl-1H-benzoimidazole-5-carboxylic acid ((S)-1-methoxymethyl-3-methyl-butyl)-amide], for the setting “EC50 (APJ agonism)”, the concentration giving a half-maximal response (EC50) came to 554 nM.
On to `CCC(CC)n1c(Cc2cccs2)nc2cc(C(=O)NC(Cc3ccc(C(F)(F)F)cc3)C(=O)O)ccc21` (stereo not shown) [Example 31, 2-{[1-(1-Ethyl-propyl)-2-thiophen-2-ylmethyl-1H-benzoimidazole-5-carbonyl]-amino}-3-(4-trifluoromethyl-phenyl)-propionic acid], for which, where the note is “read-out: EC50 (APJ agonism)”, the EC50 amounted to 4110 nM.
On the same count and under the same terms, the figure for `CC(C)C[C@H](NC(=O)c1ccc2c(c1)nc(Cc1ccco1)n2C1CCCCC1C)C(=O)O` (single isomer, unassigned) [Example 419] is 313 nM.
Still for that read-out and setting: the figure for `CC(C)C[C@@H](CC(=O)O)NC(=O)c1ccc2c(c1)nc(Cc1ccco1)n2C1CCCCC1C` (single isomer, unassigned) [Example 433] is 1720 nM; for `CCC(CC)n1c(CC2CCCCC2)nc2cc(C(=O)N[C@@H](CC3CCCCC3)C(=O)O)ccc21` [Example 141, (S)-3-Cyclohexyl-2-{[2-cyclohexylmethyl-1-(1-ethyl-propyl)-1H-benzoimidazole-5-carbonyl]-amino}-propionic acid] it is 23000 nM; for `CCC(CC)n1c(CC2CCCC2)nc2cc(C(=O)N[C@@H](CC(C)C)C(=O)O)ccc21` [Example 129, (S)-2-{[2-Cyclopentylmethyl-1-(1-ethyl-propyl)-1H-benzoimidazole-5-carbonyl]-amino}-4-methyl-pentanoic acid] it is 2680 nM.
For the compound `CCC(CC)n1c(Cc2ccc(Cl)s2)nc2cc(C(=O)N[C@@H](CC(C)C)C(=O)O)ccc21` [Example 82, (S)-2-{[2-(5-Chloro-thiophen-2-ylmethyl)-1-(1-ethyl-propyl)-1H-benzoimidazole-5-carbonyl]-amino}-4-methyl-pentanoic acid], for the setting “read-out: EC50 (APJ agonism)”, the EC50 amounted to 23300 nM.
